In assay [1] the target is T1, TTR (Homo sapiens, UniProt P02766).
T1 construct: made in house
Kind of assay: Time course (kinetics) of fibril formation, turbidity at 340 nm for 3 h. It is filed as biochemical. Conditions: TTR 7.2 μM, inhibitor 21.6 μM, 37° C., pH 4.4, 3 h. The procedure: Time Course of Fibril Formation. The kinetics of inhibition was studied by incubating […] TTR with […] of different inhibitors in 100 µl of 5 mM phosphate buffer pH 7.2 for 30 min in a 96 microwell plate. […] of 0.2 M sodium acetate buffer pH 4.4 containing 1 mM EDTA and 100 mM KCl was added. The difference in turbidity was assessed by measuring the change in absorbance at 340 nm on Tecan GEnios microplate reader using Magellan software. For kinetics, parameters were set for 30 cycles at 37° C. at the interval of 5 min each and 2 min orbital shaking (low speed) between cycles and 10 sec shaking (normal speed) before measurement. All experiments were performed in triplicates. Change in absorbance at 340 nm was plotted against time in the presence and absence of inhibitors initial rate of fibril formation was calculated from the slope by linear fitting of the data.
All experiments were performed three times in triplicates. Change in absorbance (mean of three different experiments) at 340 nm was plotted against time in the presence and absence of inhibitors. Initial rate of fibril form action was calculated from the value of the slope by linear fitting of the change in absorbance at 340 nm as a function of time.

Assay [2] has as its target T2, TTR fibers (Homo sapiens, UniProt P02766).
T2 construct: made in house
Kind of assay: Fibril disruption assay. It is filed as biochemical. The following applies: three doses (7.2 μM each), 15 days, Th-T fluorescence. The procedure:
Fibril Disruption Assay. […] The disruption was followed for 7 days by turbidity measurements at 340 nm and Th-T fluorescence. A second dose of the inhibitor (7.2 μM) was added after 24 h of incubation, and samples were incubated and monitored further for 5-6 days. After 15-20 days of incubation, samples were examined by transmission electron microscopy (TEM). All experiments were done thrice in triplicates each time.

The target of assay [3] is T1, TTR. Kind of assay: Dissociation constant by fluorescence titration (Adair equation, two sites). Format: binding. The procedure: (§1) The experiments were conducted at 25° C. After 1 h, the samples were diluted with 0.5 mL of 200 mM sodium acetate buffer pH 4.4 containing 100 mM KCl and 1 mM EDTA, vortexed, and incubated at 37° C. for 72 h. […] The stoichiometry of the binding of the inhibitors was determined by HPLC as described by Green et al., N. S. Palaninathan, S, L, Sacchettini, J. e. […] Dissociation constant of binding of these compounds to TTR was determined by fluorescence titration, and data were fitted into the Adair equation for two bind mg.
Small aliquots of 1 mM ligands solutions were successively added to the […] in 100 mM sodium acetate buffer pH 4.4 at […] under constant stirring. After each addition sample was left for 2 min. […] Readings were corrected for buffer blank, dilution and inner filter effect. The inner filter effect was corrected by using the following equation,
From the titration data the dissociation constant was determined by fitting data in following Adair equation for two binding sites-

The target of assay [4] is T3, WT-TTR (Homo sapiens, UniProt P02766).
T3 construct: made in house
Kind of assay: Stagnant acid-mediated TTR aggregation (fibril formation) assay, turbidity at 340 nm. It is filed as biochemical. The following applies: for remaining activity at 50 µM / remaining activity at 7.2 µM / remaining activity at 21.6 µM / remaining activity at 100 µM: 72 h; for remaining activity at 50 µM: read-out: % FF at 50 μM; for inhibition of TTR fibrillization: inhibitor 21.6 μM; for remaining activity at 100 µM / inhibition at 100 µM: pH 4.4, compound 100 μM; for remaining activity at 100 µM: read-out: % FF; for inhibition at 100 µM: read-out: % Inhibition. The method, then: Stagnant Acid-Mediated TTR Aggregation Assay.
After 1 h, the samples were diluted with 0.5 ml of 200 mM sodium acetate buffer containing 100 mM KCl and 1 mM EDTA. Samples after mild vortexing were incubated at 37° C. for the desired amount of time without stirring to evaluate the efficacy of the inhibitors. The extent of aggregation was probed by turbidity measurements at 340 nm using Tecan GENios microplate reader. […] The extent of TTR fibril formation in the absence of inhibitor was defined to be 100%. […] All experiments were done in triplicate. […] The IC50 was determined by plotting mean of % inhibition vs log and fitted to sigmoid equation:
as §1

Assay [5] deals with T4, TTR tetramer (Homo sapiens, UniProt P02766).
T4 construct: made in house
Kind of assay: Urea denaturation (tetramer dissociation, tryptophan fluorescence). It is filed as biochemical. The following applies: TTR 1.8 μM, inhibitor 5.4 μM (1:3), 6 M urea, 25° C., up to […].

The mark [6] stands for this setting: pH 4.4; read-out: Dissociation Constant Kd1.
[7] abbreviates: pH 4.4; read-out: Dissociation Constant Kd2.
Where [8] appears, read: 50% reduction in fibril formation, TTR 7.2 μM, pH 4.4, read-out: IC50 ± SE.
Where [9] appears, read: biphenyl ether 50 μM, WT-TTR 7.2 μM.
[10] abbreviates: pH 4.4, TTR 7.2 μM, inhibitor 7.2 μM (1:1), pH 4.4, 37° C., no inhibitor = 100%, read-out: % FF 1:1.
The mark [11] stands for this setting: pH 4.4, TTR 7.2 μM, inhibitor 21.6 μM (1:3), pH 4.4, 37° C., no inhibitor = 100%, read-out: % FF 1:3.
Where [12] appears, read: TTR amyloid formation, 37° C., read-out: IC50.
The mark [13] stands for this setting: Table 3, WT-TTR 7.2 μM, read-out: IC50.

Read-outs that look alike come from different tables or passages of the source. A value given as a limit tells only on which side of the number the result lay.

As for `OCc1ccc(Oc2ccc(Cl)cc2Cl)c(O)c1` [Compound 4], the inhibition (in general, the relative decrease from the control value, in per cent) at 21.6 µM in assay [1] was greater than 80%. In addition, the “disruption of preformed TTR fibers” value in assay [2] is “more effective”. Further, the Kd in assay [3] (setting [6]) is 0.3 ± 0.14 nM; in assay [3] (setting [7]), 13800 ± 1020 nM. In addition, the IC50 (usually the point on the concentration scale where inhibition reaches its midpoint) was 1360 ± 50 nM in assay [4] (setting [8]), 470 to 3500 nM in assay [4] (setting [12]) and 1360 nM in assay [4] (setting [13]). The remaining activity at 50 µM in assay [4] (setting [9]) was 11.5%. In assay [4] (setting [10]), the remaining activity at 7.2 µM turned out to be 12%. Also, in assay [4] (setting [11]), the remaining activity at 21.6 µM was 2.6%.
As for `O=C(Nc1nnc[nH]1)c1c(Cl)ccc(Cl)c1Cl` [Compound 12], in assay [1], the inhibition at 21.6 µM was greater than 80%. Moreover, the “disruption of preformed TTR fibers” value in assay [2] is reported as “more effective”. Besides, the Kd in assay [3] (setting [6]) was 120 ± 32.1 nM. Further, the figures for the IC50 in assay [4] (setting [8]) and in assay [4] (setting [12]) were 1060 ± 10 nM and 470 to 3500 nM, respectively. Further, in assay [4] (setting [10]), the remaining activity at 7.2 µM is 11%. Further, the remaining activity at 21.6 µM in assay [4] (setting [11]) was 3.6%. The “inhibition of TTR fibrillization” value in assay [4] (TTR 7.2 μM) is given as “completely”.
In assay [1], `N[C@H](Cc1cc(I)c(Oc2cc(I)c(O)c(I)c2)c(I)c1)C(=O)O` (stereo in doubt) [Compound 13, thyroxine, reference compound] yielded an inhibition at 21.6 µM of 75%. In addition, in assay [5], the “protein dissociates (tetramer dissociation)” value is 27%. Besides, the “% FF 1:1” value in assay [4] (TTR 7.2 μM, inhibitor 7.2 μM (1:1), pH 4.4, 37° C., no inhibitor = 100%) is recorded as 48%. The “% FF 1:3” value in assay [4] (TTR 7.2 μM, inhibitor 21.6 μM (1:3), pH 4.4, 37° C., no inhibitor = 100%) is listed as 7%.
In assay [1], `Oc1ccccc1-c1nnc(S)o1` [Compound 11] gave an inhibition at 21.6 µM greater than 80%. Moreover, the Kd in assay [3] (setting [6]) was 42 ± 2.35 nM; in assay [3] (setting [7]) it was 72.6 ± 10.3 nM. Moreover, the IC50 in assay [4] (setting [8]) was 3100 ± 50 nM; in assay [4] (setting [12]), 470 to 3500 nM. Besides, in assay [4] (setting [10]), the remaining activity at 7.2 µM was 21%. In assay [4] (setting [11]), the remaining activity at 21.6 µM turned out to be 0%. Moreover, the “inhibition of TTR fibrillization” value in assay [4] (TTR 7.2 μM) is recorded as “completely”.
In the case of `Oc1cc(CCl)ccc1Oc1ccc(Cl)cc1Cl` [Compound 3], the inhibition at 21.6 µM in assay [1] was greater than 80%. Moreover, in assay [4] (pH 4.4, read-out: % FF 1:1), the remaining activity at 7.2 µM is 5%. Besides, the remaining activity at 21.6 µM in assay [4] (pH 4.4, read-out: % FF 1:3) amounted to 0%. The remaining activity at 50 µM in assay [4] was found to be 0%.
Take `COc1cc(CCl)ccc1Oc1ccccc1` [Compound 8, 3-Methoxy-4-phenoxybenzyl chloride]: in assay [1], the inhibition at 21.6 µM was greater than 80%. Also, the IC50 in assay [4] (setting [8]) is 1940 ± 90 nM; in assay [4] (setting [12]), 470 to 3500 nM; in assay [4] (setting [13]), 1940 nM. Also, the remaining activity at 50 µM in assay [4] (setting [9]) is 0%. The remaining activity at 7.2 µM in assay [4] (setting [10]) was 25%. Also, the remaining activity at 21.6 µM in assay [4] (setting [11]) turned out to be 0%.
Consider `COc1cc(CCl)ccc1Oc1ccc(Cl)cc1Cl` [Compound 5], for which the inhibition at 21.6 µM in assay [1] is greater than 80%. The “disruption of preformed TTR fibers” value in assay [2] is listed as “more effective”. Further, the figures for the IC50 in assay [4], in assay [4] (setting [8]) and in assay [4] (setting [13]) were 470 to 3500 nM, 3160 ± 40 nM and 3160 nM, respectively. For the same molecule, the remaining activity at 50 µM in assay [4] (setting [9]) was found to be 0%. In addition, the remaining activity at 7.2 µM in assay [4] (setting [10]) was 26%. Besides, the remaining activity at 21.6 µM in assay [4] (setting [11]) amounted to 0%.
In the case of `COc1cc(C(=O)O)ccc1Oc1ccc(Cl)cc1Cl` [Compound 6], the inhibition at 21.6 µM in assay [1] was greater than 80%. Also, in assay [2], the “disruption of preformed TTR fibers” value was “more effective”. Further, the remaining activity at 50 µM in assay [4] (setting [9]) was determined as 0%. Also, the remaining activity at 7.2 µM in assay [4] (setting [10]) stood at 10%. Also, in assay [4] (setting [11]), the remaining activity at 21.6 µM came to 0%.
As for `O=Cc1ccc(Oc2ccc(Cl)cc2Cl)c(O)c1` [Compound 2], the inhibition at 21.6 µM in assay [1] is greater than 80%. Besides, the Kd in assay [3] (setting [6]) amounted to 13.9 ± 5.01 nM; in assay [3] (read-out: Dissociation Constant Kd2; pH 4.4), 525 ± 60.1 nM.
As to `Oc1cc(Cl)ccc1Oc1ccc(Cl)cc1Cl` [Compound 1, Triclosan, reference compound], the inhibition at 21.6 µM in assay [1] was 62%; in assay [4] (pH 4.4, read-out: inhibition of fibril formation) it was roughly 24%. Also, the “protein dissociates (tetramer dissociation)” value in assay [5] was found to be 47%. Also, the remaining activity at 7.2 µM in assay [4] (pH 4.4, read-out: % FF 1:1) was determined as 75%. Further, the remaining activity at 21.6 µM in assay [4] (pH 4.4, read-out: % FF 1:3) was found to be 66%. In assay [4], the remaining activity at 50 µM came out at 41%.
With `O=C(O)C1CSC(c2ccc(Cl)cc2)N1` (stereo not shown) [Compound K085-0001], in assay [4] (WT-TTR 7.2 μM, pH 4.4, 37° C.), the remaining activity at 100 µM stood at 142% and the inhibition at 100 µM amounted to 0%.
In the same order, the values of `Cc1nc2c(ccc3ccccc32)c(O)c1CN(C)Cc1ccccc1` [Compound 3453-1353] are 105% and 0%.

Source of the values: US20100190832A1, “Mechanism-based inhibitors of transthyretin amyloidosis: studies with biphenyl ethers and structural templates” (NATIONAL INSTITUTE OF IMMUNOLOGY., priority 2008, published 2010).
